Counter-ions that a name gives are not always drawn.

In the first assay the target is Steroidogenic factor 1 (Homo sapiens, UniProt Q13285). As to the kind of experiment: blockers of SF-1 LBD reporter transcription – cell-based, CHO-K1, Gal4-SF-1 LBD, luciferase luminescence, dose response (AID 600).
Chain of Steroidogenic factor 1 (Q13285 whole entry, the tested form may be a part): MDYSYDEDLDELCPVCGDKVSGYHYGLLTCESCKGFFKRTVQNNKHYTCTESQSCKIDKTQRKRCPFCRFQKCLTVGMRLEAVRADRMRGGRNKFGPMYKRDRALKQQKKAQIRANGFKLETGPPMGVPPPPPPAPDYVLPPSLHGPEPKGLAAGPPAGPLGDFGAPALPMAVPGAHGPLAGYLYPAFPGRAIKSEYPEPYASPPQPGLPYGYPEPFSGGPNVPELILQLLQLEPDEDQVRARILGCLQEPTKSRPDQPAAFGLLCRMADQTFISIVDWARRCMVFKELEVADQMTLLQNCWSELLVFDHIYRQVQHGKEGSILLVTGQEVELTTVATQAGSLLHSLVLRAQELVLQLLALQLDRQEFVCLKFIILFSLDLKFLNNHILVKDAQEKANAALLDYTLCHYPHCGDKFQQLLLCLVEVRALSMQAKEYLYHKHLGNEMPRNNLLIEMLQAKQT
Conditions: not given
As for `CCOC(=O)CSc1nc2cc(C(=O)NCc3ccco3)ccc2c(=O)n1-c1ccc(F)cc1` [2-[[3-(4-fluorophenyl)-7-(2-furfurylcarbamoyl)-4-keto-quinazolin-2-yl]thio]acetic acid ethyl ester], the 50% inhibitory concentration (IC50) is over 11 µM.

Take `COc1cccc(NC(=O)CSc2nnc(-c3cc(C)n(-c4ccccc4)c3C)o2)c1` [2-[[5-(2,5-dimethyl-1-phenyl-3-pyrrolyl)-1,3,4-oxadiazol-2-yl]thio]-N-(3-methoxyphenyl)acetamide]: the concentration for half-maximal inhibition (IC50) worked out at 3.4 µM.

In turn, `CCc1c(C)nc2ncnn2c1NCCc1ccc(OC)cc1` [(6-Ethyl-5-methyl-[1,2,4]triazolo[1,5-a]pyrimidin-7-yl)-[2-(4-methoxy-phenyl)-ethyl]-amine] yielded an IC50 of over 11 µM.

On to `Cc1cccc(NC(=O)CSc2nnc(-c3cc(C)n(-c4ccccc4)c3C)o2)c1C` [MLS000036049], for which the 50% inhibitory concentration (IC50) was over 1.22 µM.

In turn, `c1ccc2c(c1)CCN(c1ncnc3c1[nH]c1ccccc13)C2` [SMR000039631] yielded an IC50 of 9.03 µM.

As to `CN(C)CC(C(=O)c1ccccc1)c1ccccc1` (stereo not drawn) [3-(dimethylamino)-1,2-diphenyl-1-propanone;hydrochloride], the IC50 was over 3.67 µM.

In turn, `CC(C)NCC(O)Cn1c2c(c3ccccc31)CCc1c-2cnn1-c1ccccc1` (stereo not drawn) [1-(3-phenyl-4,5-dihydropyrazolo[4,3-a]carbazol-10-yl)-3-(propan-2-ylamino)-2-propanol] displayed an IC50 of 5.85 µM.

In turn, `CCN1C(=O)/C(=C2/Sc3ccc(OC)cc3N2C)S/C1=N\c1cccc(O)c1` [(5Z)-3-ethyl-2-(3-hydroxyphenyl)imino-5-(5-methoxy-3-methyl-1,3-benzothiazol-2-ylidene)-1,3-thiazolidin-4-one] displayed an IC50 of 7.66 µM.

`COc1ccc(Cl)c(Cn2c(NCc3ccco3)nc3c2c(=O)n(C)c(=O)n3C)c1` [7-(2-chloro-5-methoxy-benzyl)-8-(2-furfurylamino)-1,3-dimethyl-xanthine] came in with a 50% inhibitory concentration (IC50) of over 99 µM.

For the molecule `CC1(C)CC(=O)C2=C(C1)Oc1nc3ccccc3cc1C2C(C#N)C#N` (stereo not drawn) [2-(1-keto-3,3-dimethyl-4,12-dihydro-2H-chromeno[2,3-b]quinolin-12-yl)malononitrile], the IC50 turned out to be 7.53 µM.

`CS(=O)(=O)c1nc(-c2cccs2)cc(C(F)(F)F)n1` [MLS000044645] showed an IC50 of 5.46 µM.

As to `Cc1nnc(Sc2nc(Sc3nnc(C)s3)nc(N3CCN(C)CC3)n2)s1` [2-(4-Methyl-piperazin-1-yl)-4,6-bis-(5-methyl-[1,3,4]thiadiazol-2-ylsulfanyl)-[1,3,5]triazine], the midpoint of inhibition, the IC50, lay at 2.64 µM.

The molecule `CCOc1ccc(OCc2cccc(C(=O)N3CCOCC3)c2)cc1` [4-{3-[(4-ethoxyphenoxy)methyl]benzoyl}morpholine] displayed a 50% inhibitory concentration (IC50) of over 1.22 µM.

As for `CCOc1ccc(C2=Nn3c(nnc3-c3ccccc3OC)SC2)cc1` [6-(4-ethoxyphenyl)-3-(2-methoxyphenyl)-7H-[1,2,4]triazolo[3,4-b][1,3,4]thiadiazine], the IC50 is over 0.407 µM.

In turn, `O=C(Nc1nc(-c2ccc(Cl)s2)cs1)c1ccncc1` [MLS000098514] showed a concentration for half-maximal inhibition (IC50) of over 99 µM.

As to `CC1CCCN(c2ncnc3c2cnn3-c2ccccc2)C1` (stereo not drawn) [4-(3-methyl-1-piperidinyl)-1-phenylpyrazolo[3,4-d]pyrimidine], the half-maximal inhibitory concentration (IC50) came to 6.8 µM.

In turn, `CCCCCOC(=O)c1[nH]c2c(c1C)C(=O)CC(c1ccco1)C2` (stereo not drawn) [pentyl 6-(furan-2-yl)-3-methyl-4-oxidanylidene-1,5,6,7-tetrahydroindole-2-carboxylate] had a concentration for half-maximal inhibition (IC50) of over 1.22 µM.

Turning to `CC1CCN(c2nc3ccc(C(=O)O)cc3s2)CC1` [2-(4-methyl-1-piperidinyl)-1,3-benzothiazole-6-carboxylic acid], the half-maximal inhibitory concentration (IC50) came out at 2.25 µM.

Molecule `CC(=O)Nc1ccccc1OCC(=O)c1cc(C)n(Cc2cccs2)c1C` [MLS000056239] had a half-maximal inhibitory concentration (IC50) of 2.78 µM.

Take `O=C(Nc1ccccc1)c1cccc(-c2nnc(-c3ccccc3)o2)c1` [MLS000100081]: the half-inhibitory concentration (IC50) came to 4.2 µM.

The molecule `O=C(CC=Nc1cccc(F)c1)c1ccc2c(c1)OCO2` came in with a concentration for half-maximal inhibition (IC50) of 4.65 µM.

`CNC(=O)CCc1nc(-c2ccc(C(C)(C)C)cc2)no1` [3-[3-(4-tert-butylphenyl)-1,2,4-oxadiazol-5-yl]-N-methyl-propanamide]: half-maximal inhibition (IC50) was put at 0.058 µM.

Molecule `Cc1oc(-c2ccc3c(c2)OCCO3)cc1C(=O)O` [5-(2,3-dihydro-1,4-benzodioxin-6-yl)-2-methyl-3-furancarboxylic acid] yielded an IC50 of 5.55 µM.

Turning to `CC[C@H]1CN2CCc3cc(OC)c(OC)cc3[C@@H]2C[C@@H]1C[C@H]1NCCc2cc(OC)c(OC)cc21`, the 50% inhibitory concentration (IC50) is 0.202 µM.

In the case of `CCSc1nnc(NC(=O)c2ccccn2)s1` [MLS000056851], the concentration for half-maximal inhibition (IC50) was over 3.67 µM.

`O=S1(=O)C=C(Sc2nc3ccccc3s2)c2ccccc21` [2-[(1,1-dioxido-1-benzothien-3-yl)thio]-1,3-benzothiazole] came in with an IC50 of 0.713 µM.

The molecule `CCc1ccc2oc(-c3cc(N=Cc4cccc(OC)c4O)ccc3O)nc2c1` [(6E)-6-[[[(3E)-3-(5-ethyl-3H-1,3-benzoxazol-2-ylidene)-4-keto-cyclohexa-1,5-dien-1-yl]amino]methylene]-2-methoxy-cyclohexa-2,4-dien-1-one] showed a half-inhibitory concentration (IC50) of 5.66 µM.

`Cn1nc(C(C)(C)C)cc1C(=O)NCc1ccc(N2CCCC2=O)cc1` [5-tert-Butyl-2-methyl-2H-pyrazole-3-carboxylic acid 4-(2-oxo-pyrrolidin-1-yl)-benzylamide]: half-maximal inhibition (IC50) was put at 9.05 µM.

As for `CN(CC1CCCO1)S(=O)(=O)c1ccc(C(=O)Nc2nc(-c3ccccn3)cs2)cc1` (stereo not drawn) [4-[methyl(2-oxolanylmethyl)sulfamoyl]-N-[4-(2-pyridinyl)-2-thiazolyl]benzamide], the IC50 was over 3.67 µM.

Regarding `CC(=O)c1c(C)[nH]c(C(=O)OCCCCN2C(=O)c3ccccc3C2=O)c1C` [4-acetyl-3,5-dimethyl-1H-pyrrole-2-carboxylic acid 4-(1,3-dioxo-2-isoindolyl)butyl ester], the IC50 turned out to be 2.6 µM.

On to `c1ccc2nc(-c3nc4ccccc4o3)ccc2c1` [2-(1,3-benzoxazol-2-yl)quinoline], for which the midpoint of inhibition, the IC50, lay at 6.81 µM.

Molecule `COc1ccc(C(NC(C)=O)c2ccc3cccnc3c2O)c(OC)c1` (stereo not drawn) [MLS000109349] had an IC50 of over 3.67 µM.

`COc1ccc(CC(=O)Nc2cccc(-c3nnc(-c4cccc(C)c4)o3)c2)cc1OC` [2-(3,4-dimethoxyphenyl)-N-[3-[5-(3-methylphenyl)-1,3,4-oxadiazol-2-yl]phenyl]acetamide] registered an IC50 of over 3.67 µM.

Molecule `CCc1ccc(-c2nc(CSCC(=O)NCCCN3CCCC3=O)c(C)o2)cc1` [2-({[2-(4-ethylphenyl)-5-methyl-1,3-oxazol-4-yl]methyl}thio)-N-[3-(2-oxopyrrolidin-1-yl)propyl]acetamide] registered an IC50 of 4.32 µM.

As to `CC(NC(=O)Nc1nnc(C(F)(F)F)s1)(C(F)(F)F)C(F)(F)F` [1-(1,1,1,3,3,3-hexafluoro-2-methylpropan-2-yl)-3-[5-(trifluoromethyl)-1,3,4-thiadiazol-2-yl]urea], it took 6.25 µM to reach half-maximal inhibition (IC50).

For `c1ccc(-c2nc(N3CCCCCC3)c3ccccc3n2)nc1` [SMR000046752], the IC50 worked out at 3.46 µM.

`Cc1ccc(-c2cnc(NC(=O)CCC(=O)N3CCCCC3)n2C)cc1` [4-keto-N-[1-methyl-5-(p-tolyl)imidazol-2-yl]-4-piperidino-butyramide] returned an IC50 of over 99 µM.

Consider `CCOc1ccc(-c2cc(CCCC(=O)NCCc3ccc(OC)c(OC)c3OC)no2)cc1` [4-(5-p-phenetylisoxazol-3-yl)-N-[2-(2,3,4-trimethoxyphenyl)ethyl]butyramide], for which half-maximal inhibition (IC50) was put at 7.53 µM.

The same assay, now with this note: inactive by the depositor's call.
For `Cc1ccc(-c2cc3c(nn2)-c2ccccc2C3=O)cc1` [3-(4-methylphenyl)-5H-indeno[1,2-c]pyridazin-5-one], the IC50 was determined as 13 µM.

Molecule `COc1ccccc1CC(=O)N1CCN(c2cccc(C(F)(F)F)c2)CC1` [2-(2-methoxyphenyl)-1-[4-[3-(trifluoromethyl)phenyl]-1-piperazinyl]ethanone] had a half-maximal inhibitory concentration (IC50) of 19.7 µM.

Regarding `O=C(CSC1=NCCS1)Nc1ccnc2ccccc12` [2-(4,5-dihydro-1,3-thiazol-2-ylsulfanyl)-N-quinolin-4-yl-ethanamide], half-maximal inhibition (IC50) was put at 15.1 µM.

With `CCOc1cc(C(=O)N2CCc3cc(OC)c(OC)cc3C2)ccc1OC(F)F` [MLS000083614], the concentration for half-maximal inhibition (IC50) was determined as 12.9 µM.

In turn, `COc1ccc(NC(=O)NCCCN2CCN(c3cc(C)ccc3C)CC2)cc1` [1-[3-[4-(2,5-dimethylphenyl)-1-piperazinyl]propyl]-3-(4-methoxyphenyl)urea] yielded a concentration for half-maximal inhibition (IC50) of 24.3 µM.

Molecule `COc1ccc2c(c1)[nH]c1c(N3CCN(Cc4ccc5c(c4)OCO5)CC3)ncnc12` [4-[4-(1,3-benzodioxol-5-ylmethyl)piperazin-1-yl]-7-methoxy-5H-pyrimido[5,4-b]indole] displayed an IC50 of 13.2 µM.

In the case of `c1ccc(-c2cccc(-c3ccccn3)n2)nc1` [2,6-bis(2-pyridinyl)pyridine], the IC50 was found to be 10.3 µM.

Consider `COc1cc(CSc2nnnn2-c2ccc(C)cc2)cc(OC)c1OC` [1-(4-methylphenyl)-5-[(3,4,5-trimethoxybenzyl)thio]-1H-tetrazole], for which inhibition was half-maximal at 16.9 µM (IC50).

For the molecule `Cc1ccc2[nH]c3c(N4CCCCCC4)ncnc3c2c1` [4-(azepan-1-yl)-8-methyl-5H-pyrimido[5,4-b]indole], half-maximal inhibition (IC50) was put at 10.9 µM.

As for `COc1ccc(OC)c(NS(=O)(=O)c2ccc(N3CCCC3=O)cc2)c1` [MLS000079343], the IC50 turned out to be 36 µM.

Consider `O=C1C(=CNc2ccc3c(c2)OCO3)CCc2ccccc21` [(2E)-2-[(1,3-benzodioxol-5-ylamino)methylene]tetralin-1-one], for which the IC50 amounted to 12.3 µM.

`Cc1ccc(NC(=O)Cc2nn(C)c(=O)c3ccccc23)cc1F` [MLS000047015] had a half-maximal inhibitory concentration (IC50) of 11.4 µM.

`O=C(Nc1nnc(C2CC2)o1)c1ccc(S(=O)(=O)N2CCCc3ccccc32)cc1` [MLS000116109] returned an IC50 of 13.7 µM.

The molecule `Cc1ccc(-c2csc(N3CCC(NS(=O)(=O)c4ccc5c(c4)OCCO5)CC3)n2)cc1` [N-[1-[4-(4-methylphenyl)-1,3-thiazol-2-yl]piperidin-4-yl]-2,3-dihydro-1,4-benzodioxine-6-sulfonamide] came in with a 50% inhibitory concentration (IC50) of 11.3 µM.

`CCN(C1CCCCC1)S(=O)(=O)c1ccc(S(=O)(=O)NCc2ccncc2)cc1` [4-N-cyclohexyl-4-N-ethyl-1-N-(pyridin-4-ylmethyl)benzene-1,4-disulfonamide] gave a 50% inhibitory concentration (IC50) of 19.5 µM.

Values taken from BindingDB's records for doi:10.7270/Q2319T8T (The Scripps Research Institute Molecular Screening Center, 2007).
